This assay concerns B6C3F1 mice, B16 melanoma ip, median survival T/C. The experiment in a line: NCI In Vivo Anticancer Drug Screen. Data for tumor model B16 Melanoma (intraperitoneal) in B6C3F1 mice. Conditions: endpoint: median survival time, higher = longer survival. On the procedure: The antitumor activity of compounds was measured in mice bearing transplantable tumors. Survival or tumor size were measured and the results are expressed as the measurement made in the treated group (T) divided by the measurement made in the vehicle treated control group (C). The tumor model used in this assay is B16 Melanoma (intraperitoneal) in B6C3F1 mice

The mark [1] stands for this setting: dose: 12.5 mg/kg/injection, schedule: Q01DX009 (ip), vehicle: Klucel (hydroxypropylcellulose) (HPC).
The mark [2] stands for this setting: dose: 25.0 mg/kg/injection, schedule: Q01DX009 (ip), vehicle: Klucel (hydroxypropylcellulose) (HPC).
Setting [3] is: dose: 6.25 mg/kg/injection, schedule: Q01DX009 (ip), vehicle: saline with Tween-80.
[4] abbreviates: dose: 12.5 mg/kg/injection, schedule: Q01DX009 (ip), vehicle: saline with Tween-80.
The mark [5] stands for this setting: dose: 25.0 mg/kg/injection, schedule: Q01DX009 (ip), vehicle: saline with Tween-80.
[6] abbreviates: dose: 50.0 mg/kg/injection, schedule: Q01DX009 (ip), vehicle: saline with Tween-80.
[7] abbreviates: dose: 12.5 mg/kg/injection, schedule: Q01DX009 (ip), vehicle: saline.
[8] abbreviates: dose: 25.0 mg/kg/injection, schedule: Q01DX009 (ip), vehicle: saline.
The mark [9] stands for this setting: dose: 50.0 mg/kg/injection, schedule: Q01DX009 (ip), vehicle: saline.
[10] abbreviates: dose: 50.0 mg/kg/injection, schedule: Q01DX009 (ip), vehicle: Klucel (hydroxypropylcellulose) (HPC).
[11] abbreviates: dose: 100.0 mg/kg/injection, schedule: Q01DX009 (ip), vehicle: Klucel (hydroxypropylcellulose) (HPC).
Setting [12] is: dose: 200.0 mg/kg/injection, schedule: Q01DX009 (ip), vehicle: Klucel (hydroxypropylcellulose) (HPC).
The mark [13] stands for this setting: dose: 6.25 mg/kg/injection, schedule: Q01DX009 (ip), vehicle: saline.
The mark [14] stands for this setting: dose: 100.0 mg/kg/injection, schedule: Q01DX009 (ip), vehicle: saline with Tween-80.
The mark [15] stands for this setting: dose: 200.0 mg/kg/injection, schedule: Q01DX009 (ip), vehicle: saline with Tween-80.

Several values for one entry are separate records, joined by “and”; a condition that tells them apart may be missing. Identical values can stand only once. Toxic doses and inconclusive results are not listed.

In the case of `O=NN(CCCl)C(=O)Oc1cc(Cl)c(Cl)cc1Cl`, the T/C by setting is: (dose: 3.12 mg/kg/injection, schedule: Q01DX009 (ip), vehicle: Klucel (hydroxypropylcellulose) (HPC)) 99 % of control; (dose: 6.25 mg/kg/injection, schedule: Q01DX009 (ip), vehicle: Klucel (hydroxypropylcellulose) (HPC)) 99 % of control; under setting [1], 188 % of control; under setting [2], 169 % of control and 205 % of control.

Turning to `Cc1cc(=O)n2c3c(c4c(cc13)c(CN(C)C)cc(=O)n4C)OC2`, the T/C is, setting by setting: under setting [3], 105 % of control; under setting [4], 98 % of control; under setting [5], 100 % of control; under setting [6], 111 % of control.

Take `C/C(=N\NC(=O)c1ccccc1O)c1cccc(/C(C)=N/NC(=O)c2ccccc2O)n1`: the T/C was 102 % of control (dose: 3.0 mg/kg/injection, schedule: Q01DX009 (ip), vehicle: saline) and 96 % of control (dose: 6.0 mg/kg/injection, schedule: Q01DX009 (ip), vehicle: saline).

Take `COC1/C=C\C=C(/C)C(=O)NC2=CC(=O)C(N)=C(CC(C)CC(OC)C(O)C(C)C=C(C)C1OC(N)=O)C2=O` (stereo unspecified): the T/C (dose: 0.75 mg/kg/injection, schedule: Q01DX009 (ip), vehicle: saline with Tween-80) is 113 % of control; the T/C (dose: 1.5 mg/kg/injection, schedule: Q01DX009 (ip), vehicle: saline with Tween-80) is 113 % of control; the T/C (dose: 3.0 mg/kg/injection, schedule: Q01DX009 (ip), vehicle: saline with Tween-80) was 116 % of control.

Consider `CC(Br)C(=O)NC(Cc1ccccc1)C(=O)O` (stereo unspecified), for which the T/C was 104 % of control under setting [7], 95 % of control under setting [8] and 102 % of control under setting [9].

Take `Cc1cc(C)c(-c2cc(O)c(C)cc2O)c(C)c1`: the T/C is, setting by setting: under setting [1], 99 % of control; under setting [2], 101 % of control; under setting [10], 103 % of control; under setting [11], 99 % of control; under setting [12], 100 % of control.

Consider `Nc1n[nH]c2ccccc12`, for which the T/C was 101 % of control (dose: 25.0 mg/kg/injection, schedule: Q01DX009 (ip), vehicle: acid diluted with saline); 102 % of control (dose: 50.0 mg/kg/injection, schedule: Q01DX009 (ip), vehicle: acid diluted with saline); 95 % of control (dose: 100.0 mg/kg/injection, schedule: Q01DX009 (ip), vehicle: acid diluted with saline); 88 % of control (dose: 200.0 mg/kg/injection, schedule: Q01DX009 (ip), vehicle: acid diluted with saline).

Consider `O=C(O)CC1C(=O)OC2C3COC(=O)c4cc(O)c(O)c(O)c4-c4c(cc(O)c(O)c4O)C(=O)OC2C(OC(=O)c2cc(O)c(O)c4c2C1C(O)C(=O)O4)C(OC(=O)c1cc(O)c(O)c(O)c1)O3` (stereo unspecified), for which the T/C is, setting by setting: under setting [13], 94 % of control; under setting [7], 99 % of control; under setting [8], 100 % of control; under setting [9], 88 % of control.

With `COc1cc(C)c(C2NC(=O)c3ccccc3N2)cc1C` (stereo unspecified), the T/C is 111 % of control and 120 % of control under setting [10]; 115 % of control and 105 % of control under setting [11]; 111 % of control under setting [12]; 112 % of control (dose: 400.0 mg/kg/injection, schedule: Q01DX009 (ip), vehicle: Klucel (hydroxypropylcellulose) (HPC)); 107 % of control (dose: 800.0 mg/kg/injection, schedule: Q01DX009 (ip), vehicle: Klucel (hydroxypropylcellulose) (HPC)).

With `Oc1ccc(O)cc1`, the T/C is 101 % of control (dose: 3.13 mg/kg/injection, schedule: Q01DX009 (ip), vehicle: saline); 88 % of control under setting [13]; 95 % of control under setting [7]; 110 % of control under setting [8]; 98 % of control under setting [9].

For `CC(C)(C)OC(=O)NC(Cc1cn(Cc2ccccc2)cn1)C(=O)O` (stereo unspecified), the T/C runs as follows: under setting [6], 102 % of control; under setting [14], 97 % of control; under setting [15], 100 % of control.

For the compound `O=C(CCCCCCC(=O)ON1C(=O)CCC1=O)ON1C(=O)CCC1=O`, the T/C under setting [5] is 99 % of control, the T/C under setting [6] is 96 % of control and the T/C under setting [14] is 103 % of control.

Take `Cc1c2ccccc2c(C)c2c1cc(C(=O)O)c1ccccc12`: the T/C (dose: 25.0 mg/kg/injection, schedule: Q01DX009 (ip), vehicle: sodium bicarbonate) is 99 % of control; the T/C (dose: 50.0 mg/kg/injection, schedule: Q01DX009 (ip), vehicle: sodium bicarbonate) was 105 % of control; the T/C (dose: 100.0 mg/kg/injection, schedule: Q01DX009 (ip), vehicle: sodium bicarbonate) is 108 % of control; the T/C (dose: 200.0 mg/kg/injection, schedule: Q01DX009 (ip), vehicle: sodium bicarbonate) was 109 % of control; the T/C (dose: 400.0 mg/kg/injection, schedule: Q01DX009 (ip), vehicle: sodium bicarbonate) was 101 % of control.

As to `Cn1c2c(c3ccccc3c1=O)C(=O)c1ccccc1-2`, the T/C by setting is: (dose: 3.13 mg/kg/injection, schedule: Q01DX009 (ip), vehicle: saline with Tween-80) 114 % of control; under setting [3], 105 % of control; under setting [4], 98 % of control and 101 % of control; under setting [5], 104 % of control; under setting [6], 96 % of control; under setting [14], 102 % of control. For the same compound, the T/C reads like this: under setting [15], 94 % of control; (dose: 400.0 mg/kg/injection, schedule: Q01DX009 (ip), vehicle: saline with Tween-80) 88 % of control.

Turning to `Cc1ncc(CO)c(CO)c1O`, the T/C runs as follows: (dose: 50.0 mg/kg/injection, schedule: Q03HX009 (ip), vehicle: suspension in saline) 106 % of control; (dose: 100.0 mg/kg/injection, schedule: Q03HX009 (ip), vehicle: suspension in saline) 102 % of control; (dose: 200.0 mg/kg/injection, schedule: Q03HX009 (ip), vehicle: suspension in saline) 102 % of control; (dose: 400.0 mg/kg/injection, schedule: Q03HX009 (ip), vehicle: suspension in saline) 98 % of control; (dose: 800.0 mg/kg/injection, schedule: Q03HX009 (ip), vehicle: suspension in saline) 96 % of control.

For the compound `CCCCCCCCCCCCCCCCCC1=NC(C)CC(C)(C)O1` (stereo unspecified), the T/C runs as follows: under setting [9], 96 % of control; (dose: 100.0 mg/kg/injection, schedule: Q01DX009 (ip), vehicle: saline) 94 % of control; (dose: 200.0 mg/kg/injection, schedule: Q01DX009 (ip), vehicle: saline) 94 % of control.

Source of the values: PubChem BioAssay AID200 (DTP/NCI, 2004).
